Data on one compound can be found in patent US20250195491A1 (AEVIS BIO, INC., priority 2022, published 2025).

Experiment [1] deals with iNOS and COX-2. The experiment is described as follows: iNOS and COX-2 mRNA (RT-PCR) in LPS-stimulated BV-2 cells. The experiment is classed as cell-based, mouse. The following applies: BV-2, 30, 10, or 3.33 μM, LPS 1 μg/mL 6 hours, FIG. 6D. As to the method: Finally, to determine the mRNA expression levels of iNOS and COX-2, BV-2 was seeded in a 6-well plate (Corning, MD, USA) at 5×10^5 cells/well, and cultured using a DMEM medium (Corning, MD, USA) containing 10% fetal bovine serum (Corning, MD, USA) and 100 U/mL of penicillin/streptomycin (Corning, MD, USA) at 37° C. in a 5% CO2 incubator for one day for stabilization. […] 1 μg/mL of LPS (Sigma, USA) was added to all experimental groups excluding the non-inflammation-induced group and allowed to react at 37° C. in a 5% CO2 incubator for 6 hours.
The drug-treated BV-2 underwent RNA prep according to the kit manual using an RNA prep kit (Monarch Total RNA Miniprep kit, NEB, UK), and the concentration was measured using a nanophotometer (NP80, Implen, Germany). […]
The expression level of each oxidative stress-associated gene in the synthesized cDNA was analyzed and compared using Real-Time PCR (StepOne™Bioscience, USA) equipment. […] The Cr value for the gene of each sample obtained through real-time PCR was normalized by the value of the internal control gene (GAPDH) of each sample, the expression level was estimated inversely by 2ΔΔCT calculation, and the resulting value of each group was quantified and expressed as a percentage relative to the LPS-only treatment group.

The test system of a further experiment is Aiolos and Ikaros. The experiment is described as follows: Aiolos and Ikaros degradation by immunoblotting in MM.1S cells. The format is cell-based, human. The following applies: immunoblot. The procedure:
To this end, the MM.1S cell line was cultured in an RPMI medium (Corning, MD, USA) supplemented with 10% fetal bovine serum (Corning, MD, USA), 100 U/mL of penicillin (Corning, MD, USA), and 100 μg/mL of streptomycin (Corning, MD, USA) at 37° C. in a 5% CO2 incubator. […] The cells were disrupted by adding a RIPA buffer containing a protease inhibitor cocktail (Thermo Fisher Scientific) and centrifuged at 14,000 rpm for 15 minutes at 4° C. to obtain a cell extract. Equal amounts of the cell extract were loaded, and proteins were separated through SDS-PAGE and then transferred to a PVDF membrane. The protein-transferred membrane was blocked using skim milk, incubated with a primary antibody for 3 hours at room temperature, and then incubated with an HRP-conjugated secondary antibody for 1 hour at room temperature. The resulting product was washed with TBS-T three times between steps. Detection was performed using a chemoluminescence reagent (Thermo Fisher Scientific), and confirmed using Chemidoc (iBright CL1500, Invitrogen, CA, USA). Aiolos (#15103), Ikaros (#9034) and GAPDH (#2118S) antibodies used as primary antibodies and a secondary antibody were purchased from Cell Signaling Technology (Danvers, MA, USA).
Additionally, the expression of Aiolos and Ikaros, mediated by 3-MP, was confirmed over time. […]
For orientation: A western blot detects proteins with antibodies after separation by electrophoresis.

In experiment [2] the test system is iNOS and COX-2. The experiment is described as follows: iNOS and COX-2 immunoblotting in LPS-stimulated RAW264.7 cells. The format is cell-based, mouse. To be noted: RAW264.7, 3.33, 10, or 30 μM, LPS 60 ng/ml 24 hours, FIG. 6A. The procedure: To confirm an oxidative stress suppression effect, the expression levels of iNOS and COX-2 were confirmed.
To this end, the RAW264.7 cell line, which is a mouse macrophage cell line, was purchased from the Korea Cell Line Bank (KCLB, Korea) and used, and cultured in a DMEM medium (Corning, MD, USA) supplemented with 10% fetal bovine serum (Corning, MD, USA), 100 U/mL of penicillin (Corning, MD, USA), and 100 100 μg/mL of streptomycin (Corning, MD, USA) at 37° C. in a 5% CO2 incubator.
After 1 hour, the cells were stimulated by treatment with 60 ng/ml of LPS, and further cultured for 24 hours. The cells were disrupted by adding a RIPA buffer containing a protease inhibitor cocktail (Thermo Fisher Scientific) and centrifuged at 14,000 rpm for 15 minutes at 4° C. to obtain a cell extract. Equal amounts of the cell extract were loaded, and proteins were separated through SDS-PAGE and then transferred to a PVDF film. The protein-transferred membrane was blocked using skim milk, incubated with a primary antibody for 3 hours at room temperature, and then incubated with an HRP-conjugated secondary antibody for 1 hour at room temperature.
The resulting product was washed with TBS-T three times between steps. […]

Consider `Nc1cccc2c1C(=S)N(C1CCC(=O)NC1=O)C2=O` (stereo not shown) [3-MP, 3-thiopomalidomide], for which the “mRNA expression of oxidative stress-associated genes (iNOS and COX-2)” value in the experiment on iNOS and COX-2 [1] is listed as “can effectively inhibit the mRNA expression of an oxidative stress-associated gene”. Moreover, the “expression of Aiolos and Ikaros over time” value in the experiment on Aiolos and Ikaros (10 μM, 1, 4, 8, 12, or 24 hours, FIG. 3B) is “does not reduce the expression of Aiolos and Ikaros”. Further, the “expression of Aiolos and Ikaros, by concentration” value with Aiolos and Ikaros (0.000128-10 μM, 4 hours, FIG. 3A) was “does not reduce the expression of Aiolos and Ikaros”. The “expression of iNOS and COX-2 (protein)” value in the experiment with iNOS and COX-2 [2] was “inhibits the expression of iNOS and COX-2”.
